Reference: the supplement of paper PMC10307832

Columns and labels:
Test in all cases: relative viability (nuclei count vs DMSO), 5 days (fraction); higher = more cells survive
Lestaurtinib + OSI-027 = compound: C[C@]12O[C@H](C[C@]1(O)CO)n1c3ccccc3c3c4c(c5c6ccccc6n2c5c31)CNC4=O [Lestaurtinib] + COc1cccc2cc(-c3nc([C@H]4CC[C@H](C(=O)O)CC4)n4ncnc(N)c34)[nH]c12 [OSI-027] (partner 0.5 µM)
Summary of the method: (§1)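 Relative viability divides the nuclei count in treated wells by that in vehicle wells. Lung cancer cell lines were seeded in 1536-well plates, dosed by pin tool the next day, and fixed and stained after 5 days in one step with final 0.05% Triton X-100, 1% formaldehyde and 1 ug/ml Hoechst. Dosing was a single drug or a fixed anchor-drug dose plus five library-drug doses (not always all listed) in √10 steps, and values are medians of duplicate plates imaged at 4×.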

[1] = compound: C[C@]12O[C@H](C[C@]1(O)CO)n1c3ccccc3c3c4c(c5c6ccccc6n2c5c31)CNC4=O [Lestaurtinib] + Nc1nc2[nH]cc(CCc3ccc(C(=O)N[C@@H](CCC(=O)O)C(=O)O)cc3)c2c(=O)[nH]1 [Pemetrexed] (partner 0.2 µM)
Summary of the method: as §1

TPCA-1 + Linsitinib = compound: C1=CC(=CC=C1C2=CC(=C(S2)NC(=O)N)C(=O)N)F [TPCA-1] + C[C@]1(O)C[C@@H](c2nc(-c3ccc4ccc(-c5ccccc5)nc4c3)c3c(N)nccn32)C1 [Linsitinib] (partner 1 µM)
Summary of the method: as §1

Lestaurtinib + AZD7762 = compound: C[C@]12O[C@H](C[C@]1(O)CO)n1c3ccccc3c3c4c(c5c6ccccc6n2c5c31)CNC4=O [Lestaurtinib] + NC(=O)Nc1cc(-c2cccc(F)c2)sc1C(=O)N[C@H]1CCCNC1 [AZD7762] (partner 0.2 µM)
Summary of the method: as §1

Cell Line | relative viability (Lestaurtinib + OSI-027; first compound 0.005 µM) | relative viability (Lestaurtinib + OSI-027; first compound 0.01581 µM) | relative viability (Lestaurtinib + OSI-027; first compound 0.05 µM) | relative viability (Lestaurtinib + OSI-027; first compound 0.1581 µM) | relative viability (Lestaurtinib + OSI-027; first compound 0.5 µM) | relative viability ([1]; first compound 0.005 µM) | relative viability ([1]; first compound 0.01581 µM) | relative viability ([1]; first compound 0.05 µM) | relative viability ([1]; first compound 0.1581 µM) | relative viability ([1]; first compound 0.5 µM) | relative viability (TPCA-1 + Linsitinib; first compound 0.04 µM) | relative viability (TPCA-1 + Linsitinib; first compound 0.1265 µM) | relative viability (TPCA-1 + Linsitinib; first compound 0.4 µM) | relative viability (TPCA-1 + Linsitinib; first compound 1.265 µM) | relative viability (TPCA-1 + Linsitinib; first compound 4 µM) | relative viability (Lestaurtinib + AZD7762; first compound 0.005 µM) | relative viability (Lestaurtinib + AZD7762; first compound 0.01581 µM) | relative viability (Lestaurtinib + AZD7762; first compound 0.05 µM) | relative viability (Lestaurtinib + AZD7762; first compound 0.1581 µM) | relative viability (Lestaurtinib + AZD7762; first compound 0.5 µM)
NCI-H2085 | 0.707 | 0.822 | 0.801 | 0.658 | 0.521 | 0.861 | 0.877 | 0.915 | 0.858 | 0.78 | 0.901 | 0.859 | 1 | 0.912 | 0.926 | 0.917 | 0.938 | 0.941 | 0.98 | 0.827
NCI-H460 | 0.498 | 0.859 | 0.359 | 0.229 | 0.204 | 0.0559 | 0.0645 | 0.0633 | 0.0509 | 0.0531 | 0.946 | 0.737 | 0.735 | 0.339 | 0.286 | 0.651 | 0.765 | 0.757 | 1.31 | 0.645
Calu-6 | – | – | – | – | – | – | – | – | – | – | 1.15 | 0.941 | 0.962 | 0.847 | 0.68 | – | – | – | – | –
RERF-LC-KJ | 0.525 | 0.577 | 0.491 | 0.461 | 0.315 | 0.482 | 0.496 | 0.417 | 0.455 | 0.351 | 1.02 | 0.82 | 0.857 | 0.896 | 0.905 | 1.1 | 1.16 | 0.729 | 0.984 | 0.61
LCLC-103H | 0.442 | 0.49 | 0.349 | 0.385 | 0.286 | 0.418 | 0.484 | 0.469 | 0.472 | 0.412 | 1.24 | 0.99 | 1.08 | 1.12 | 1.07 | 0.924 | 0.785 | 0.635 | 0.633 | 0.452
NCI-H1563 | 0.724 | 0.755 | 0.757 | 0.777 | 0.734 | 0.71 | 0.855 | 0.613 | 0.797 | 0.723 | 1.2 | 1.23 | 1.17 | 1.12 | 1.16 | – | – | – | – | –
NCI-H661 | 0.623 | 0.736 | 0.405 | 0.589 | 0.372 | 0.972 | 1.03 | 0.836 | 0.702 | 0.523 | 0.524 | 0.487 | 0.706 | 0.534 | 0.411 | – | – | – | – | –
NCI-H522 | 0.816 | 0.791 | 0.679 | 0.709 | 0.572 | 1.01 | 1.08 | 1.01 | 0.784 | 0.502 | – | – | – | – | – | 0.944 | 0.778 | 0.842 | 0.744 | 0.479
COR-L23 | 0.612 | 0.933 | 0.281 | 0.395 | 0.343 | 0.209 | 0.214 | 0.195 | 0.194 | 0.202 | 1.01 | 0.771 | 0.975 | 0.821 | 0.565 | – | – | – | – | –
NCI-H1299 | – | – | – | – | – | – | – | – | – | – | 1.13 | 0.904 | 0.942 | 0.777 | 1.01 | – | – | – | – | –
SW 1573 | 0.67 | 0.561 | 0.482 | 0.449 | 0.131 | 1.03 | 0.86 | 0.666 | 0.303 | 0.119 | 1.03 | 0.881 | 0.807 | 0.802 | 0.643 | – | – | – | – | –
ChaGo-K-1 | 0.608 | 0.626 | 0.5 | 0.376 | 0.373 | 0.267 | 0.268 | 0.261 | 0.249 | 0.205 | – | – | – | – | – | 0.924 | 0.834 | 0.775 | 0.816 | 0.461
SK-MES-1 | 0.536 | 0.486 | 0.407 | 0.342 | 0.151 | 0.982 | 0.918 | 0.506 | 0.413 | 0.26 | 1.17 | 0.985 | 1.01 | 0.859 | 0.634 | – | – | – | – | –
NCI-H1648 | 0.233 | 0.271 | 0.285 | 0.246 | 0.261 | – | 0.806 | – | 1 | 0.606 | – | – | – | – | – | – | 1.47 | – | 0.977 | 0.644
NCI-H2023 | 0.375 | 0.407 | 0.341 | 0.296 | 0.104 | 0.292 | 0.285 | 0.201 | 0.153 | 0.0898 | 0.706 | 0.721 | 0.765 | 0.559 | 0.409 | – | – | – | – | –
EBC-1 | – | – | – | – | – | – | – | – | – | – | 1.06 | 0.825 | 0.815 | 0.844 | 0.814 | – | – | – | – | –
NCI-H2009 | 0.578 | 0.449 | 0.365 | 0.441 | 0.24 | 1.07 | 1.06 | 0.998 | 0.934 | 0.835 | 1.25 | 1.18 | 1.11 | 1.19 | 1.06 | – | – | – | – | –
NCI-H2228 | 0.528 | 0.627 | 0.349 | 0.294 | 0.104 | 0.381 | 0.383 | 0.299 | 0.147 | 0.148 | 0.789 | 0.723 | 0.627 | 0.825 | 0.455 | – | – | – | – | –
IA-LM | – | – | – | – | – | – | – | – | – | – | 0.75 | 0.411 | 0.47 | 0.259 | 0.378 | – | – | – | – | –
ABC-1 | 0.505 | 0.65 | 0.342 | 0.456 | 0.175 | – | – | – | – | – | 0.936 | 0.714 | 0.662 | 0.579 | 0.524 | 0.59 | 1.09 | 0.692 | 0.76 | 0.593
NCI-H520 | 0.299 | 0.286 | 0.272 | 0.206 | 0.196 | 0.772 | 0.678 | 0.593 | 0.369 | 0.318 | 1.16 | 0.832 | 0.989 | 0.838 | 0.921 | – | – | – | – | –
NCI-H1703 | – | – | – | – | – | – | – | – | – | – | 1.01 | 0.627 | 0.947 | 0.546 | 0.308 | 0.122 | 0.115 | 0.107 | 0.108 | 0.0966
NCI-H2170 | 0.726 | 0.523 | 0.45 | 0.561 | 0.471 | 0.258 | 0.259 | 0.259 | 0.261 | 0.175 | – | – | – | – | – | 0.847 | 0.784 | 0.655 | 0.83 | 0.241
